Where only a bound is given, the exact number is not on record here.

Human Factor D, sequence (P00746 26-253): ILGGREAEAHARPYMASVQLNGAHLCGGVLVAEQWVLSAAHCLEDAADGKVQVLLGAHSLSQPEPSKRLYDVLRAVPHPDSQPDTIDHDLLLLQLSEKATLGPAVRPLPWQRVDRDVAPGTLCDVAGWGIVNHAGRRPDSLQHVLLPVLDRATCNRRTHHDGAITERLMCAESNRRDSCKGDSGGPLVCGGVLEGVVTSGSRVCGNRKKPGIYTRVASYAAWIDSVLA

For this assay, the target named is Human Factor D (Homo sapiens (Human), UniProt P00746). Nature of the assay: Human Factor D Assay. The assay is classed as biochemical. To be noted: Table 6; Factor D 80 nM, substrate Z-L-Lys-SBz; read-out: IC50. The procedure:
The assay of Example 10 was used to determine the IC50's of the compounds. Other standard factor D inhibition assays are also available.
Human Factor D (purified from human serum, Complement Technology, Inc.) at 80 nM final concentration is incubated with test compound at various concentrations for 5 min at room temperature in 50 mM Tris, 1M NaCl, pH 7.5. A synthetic substrate Z-L-Lys-SBz and DTNB (Ellman's reagent) are added to final concentrations of 100 μM each. Absorbance at 405 nm (A405) is recorded at 30 second intervals for 30 min using a microplate spectrophotometer. IC50 values are calculated by nonlinear regression of complement Factor D reaction rates as a function of test compound concentration.
Regarding `CC(=O)c1nn(CC(=O)N2C[C@H](F)C[C@H]2C(=O)Nc2cccc(Br)n2)c2c(Cc3ncc(C)cn3)cc(-c3cnc(C)nc3)cc12` [Compound 21, (2S,4R)-1-(2-(3-acetyl-7-((5-methylpyrimidin-2-yl)methyl)-5-(2-methylpyrimidin-5-yl)-1H-indazol-1-yl)acetyl)-N-(6-bromopyridin-2-yl)-4-fluoropyrrolidine-2-carboxamide], the IC50 was below 1000 nM.
Next, `CC(=O)c1nn(CC(=O)N2C3CC3(CN3CCNCC3)C[C@H]2C(=O)Nc2nc(Br)ccc2C)c2ccc(-c3cnc(C)nc3)cc12` (stereo partly drawn) [Compound 22, (3S)-2-(2-(3-Acetyl-5-(2-methylpyrimidin-5-yl)-1H-indazol-1-yl)acetyl)-N-(6-bromo-3-methylpyridin-2-yl)-5-(piperazin-1-ylmethyl)-2-azabicyclo[3.1.0]hexane-3-carboxamide]: below 1000 nM.
As to `CC(=O)c1nn(CC(=O)N2C[C@H](F)C[C@H]2C(=O)Nc2nc(Br)ccc2CC#N)c2ccc(-c3cnc(C)nc3)cc12` [Compound 23, (2S,4R)-1-(2-(3-Acetyl-5-(2-methylpyrimidin-5-yl)-1H-indazol-1-yl)acetyl)-N-(6-bromo-3-(cyanomethyl)pyridin-2-yl)-4-fluoropyrrolidine-2-carboxamide], the IC50 is below 1000 nM.
In the case of `CC(=O)c1nn(CC(=O)N2C3CC3(CN3CCN(C)CC3)C[C@H]2C(=O)Nc2nc(Br)ccc2C)c2ccc(-c3cnc(C)nc3)cc12` (stereo partly drawn) [Compound 24, (3S)-2-(2-(3-Acetyl-5-(2-methylpyrimidin-5-yl)-1H-indazol-1-yl)acetyl)-N-(6-bromo-3-methylpyridin-2-yl)-5-((4-methylpiperazin-1-yl)methyl)-2-azabicyclo[3.1.0]hexane-3-carboxamide], the IC50 is below 1000 nM.
With `COC(=O)c1cc(-c2cnc(C)nc2)cc2c(C(C)=O)nn(CC(=O)N3C[C@H](F)C[C@H]3C(=O)Nc3cccc(Br)n3)c12` [Compound 25, Methyl 3-acetyl-1-(2-((2S,4R)-2-((6-bromopyridin-2-yl)carbamoyl)-4-fluoropyrrolidin-1-yl)-2-oxoethyl)-5-(2-methylpyrimidin-5-yl)-1H-indazole-7-carboxylate], the half-inhibitory concentration (IC50) is below 1000 nM.
For `CC(=O)c1nn(CC(=O)N2C3CC3(CN)C[C@H]2C(=O)Nc2nc(Br)ccc2C)c2ccc(-c3cnc(C)nc3)cc12` (stereo partly drawn) [Compound 26, (3S)-2-(2-(3-Acetyl-5-(2-methylpyrimidin-5-yl)-1H-indazol-1-yl)acetyl)-5-(aminomethyl)-N-(6-bromo-3-methylpyridin-2-yl)-2-azabicyclo[3.1.0]hexane-3-carboxamide], the IC50 is 1000 to 10000 nM.
For `CC(=O)c1nn(CC(=O)N2[C@H](C(=O)Nc3nc(Br)c(F)cc3C)C[C@@]3(C)C[C@@H]23)c2c(C)cc(-c3cnc(C)nc3)cc12` [Compound 27, (1R,3S,5R)-2-(2-(3-acetyl-7-methyl-5-(2-methylpyrimidin-5-yl)-1H-indazol-1-yl)acetyl)-N-(6-bromo-5-fluoro-3-methylpyridin-2-yl)-5-methyl-2-azabicyclo[3.1.0]hexane-3-carboxamide], the IC50 was below 1000 nM.
On to `C=CCOCc1ccc(Br)nc1NC(=O)[C@@H]1C[C@]2(COCC=C)C[C@@H]2N1C(=O)Cn1nc(C(C)=O)c2cc(-c3cnc(C)nc3)ccc21` [Compound 29, (1S,3S,5R)-2-(2-(3-Acetyl-5-(2-methylpyrimidin-5-yl)-1H-indazol-1-yl)acetyl)-5-((allyloxy)methyl)-N-(3-((allyloxy)methyl)-6-bromopyridin-2-yl)-2-azabicyclo[3.1.0]hexane-3-carboxamide], for which the IC50 was below 1000 nM.
Take `CC(=O)c1nn(CC(=O)N2[C@H](C(=O)Nc3nc(Br)ccc3C)C[C@@]3(C)C[C@@H]23)c2c(CF)cc(-c3cnc(C)nc3)cc12` [Compound 31, (1R,3S,5R)-2-(2-(3-Acetyl-7-(fluoromethyl)-5-(2-methylpyrimidin-5-yl)-1H-indazol-1-yl)acetyl)-N-(6-bromo-3-methylpyridin-2-yl)-5-methyl-2-azabicyclo[3.1.0]hexane-3-carboxamide]: the half-maximal inhibitory concentration (IC50) was below 1000 nM.
Take `COCc1cc(-c2cnc(C)nc2)cc2c(C(C)=O)nn(CC(=O)N3C4CC4(COC)C[C@H]3C(=O)Nc3cccc(Br)n3)c12` (stereo partly drawn) [Compound 32, (3S)-2-(2-(3-Acetyl-7-(methoxymethyl)-5-(2-methylpyrimidin-5-yl)-1H-indazol-1-yl)acetyl)-N-(6-bromopyridin-2-yl)-5-(methoxymethyl)-2-azabicyclo[3.1.0]hexane-3-carboxamide]: the IC50 is below 1000 nM.
As for `CC(=O)c1nn(CC(=O)N2[C@H](C(=O)Nc3cccc(OC(F)(F)F)c3F)C[C@@]3(C)C[C@@H]23)c2c(C)cc(-c3cnc(C)nc3)cc12` [Compound 33, (1R,3S,5R)-2-(2-(3-Acetyl-7-methyl-5-(2-methylpyrimidin-5-yl)-1H-indazol-1-yl)acetyl)-N-(2-fluoro-3-(trifluoromethoxy)phenyl)-5-methyl-2-azabicyclo[3.1.0]hexane-3-carboxamide], the figure is below 1000 nM.
With `CC(=O)c1nn(CC(=O)N2[C@H](C(=O)N[C@@H](C)C(F)=C(C)C)C[C@@]3(C)C[C@@H]23)c2c(C)cc(-c3cnc(C)nc3)cc12` [Compound 34, (1R,3S,5R)-2-(2-(3-Acetyl-7-methyl-5-(2-methylpyrimidin-5-yl)-1H-indazol-1-yl)acetyl)-N—((S)-3-fluoro-4-methylpent-3-en-2-yl)-5-methyl-2-azabicyclo[3.1.0]hexane-3-carboxamide], the half-maximal inhibitory concentration (IC50) was below 1000 nM.
Regarding `CC(=O)c1nn(CC(=O)N2[C@H](C(=O)Nc3ccn(CC(F)(F)F)n3)C[C@@]3(C)C[C@@H]23)c2c(C)cc(-c3cnc(C)nc3)cc12` [Compound 35, (1R,3S,5R)-2-(2-(3-Acetyl-7-methyl-5-(2-methylpyrimidin-5-yl)-1H-indazol-1-yl)acetyl)-5-methyl-N-(1-(2,2,2-trifluoroethyl)-1H-pyrazol-3-yl)-2-azabicyclo[3.1.0]hexane-3-carboxamide], the IC50 was below 1000 nM.
Consider `CC(=O)c1nn(CC(=O)N2[C@H](C(=O)Nc3cccc(C(F)(F)F)n3)C[C@@]3(C)C[C@@H]23)c2c(C)cc(-c3cnc(C)nc3)cc12` [Compound 36, (1R,3S,5R)-2-(2-(3-Acetyl-7-methyl-5-(2-methylpyrimidin-5-yl)-1H-indazol-1-yl)acetyl)-5-methyl-N-(6-(trifluoromethyl)pyridin-2-yl)-2-azabicyclo[3.1.0]hexane-3-carboxamide], for which the IC50 is below 1000 nM.
As for `CC(=O)c1nn(CC(=O)N2[C@H](C(=O)Nc3cccc(OC(F)(F)F)n3)C[C@@]3(C)C[C@@H]23)c2c(C)cc(-c3cnc(C)nc3)cc12` [Compound 37, (1R,3S,5R)-2-(2-(3-Acetyl-7-methyl-5-(2-methylpyrimidin-5-yl)-1H-indazol-1-yl)acetyl)-5-methyl-N-(6-(trifluoromethoxy)pyridin-2-yl)-2-azabicyclo[3.1.0]hexane-3-carboxamide], the figure is below 1000 nM; as for `CC(=O)c1nn(CC(=O)N2[C@H](C(=O)O)C[C@@]3(C)C[C@@H]23)c2ccc(-c3cnc(C)nc3)cc12` [Compound 40, (1R,3S,5R)-2-(2-(3-acetyl-5-(2-methylpyrimidin-5-yl)-1H-indazol-1-yl)acetyl)-5-methyl-2-azabicyclo[3.1.0]hexane-3-carboxylic acid], above 10000 nM.
In the case of `CC(=O)c1nn(CC(=O)N2C[C@H](F)C[C@H]2C(=O)Nc2cccc(Br)n2)c2c(C(=O)O)cc(-c3cnc(C)nc3)cc12` [Compound 41, 3-acetyl-1-(2-((2S,4R)-2-((6-bromopyridin-2-yl)carbamoyl)-4-fluoropyrrolidin-1-yl)-2-oxoethyl)-5-(2-methylpyrimidin-5-yl)-1H-indazole-7-carboxylic acid], the IC50 is below 1000 nM.
Turning to `CNCC12CC1N(C(=O)Cn1nc(C(C)=O)c3cc(-c4cnc(C)nc4)ccc31)[C@H](C(=O)Nc1nc(Br)ccc1C)C2` (stereo partly drawn) [Compound 42, (3S)-2-(2-(3-acetyl-5-(2-methylpyrimidin-5-yl)-1H-indazol-1-yl)acetyl)-N-(6-bromo-3-methylpyridin-2-yl)-5-((methylamino)methyl)-2-azabicyclo[3.1.0]hexane-3-carboxamide], the 50% inhibitory concentration (IC50) is below 1000 nM.
Turning to `CC(=O)NC[C@@]12C[C@@H]1N(C(=O)Cn1nc(C(C)=O)c3cc(-c4cnc(C)nc4)ccc31)[C@H](C(=O)Nc1cccc(Br)n1)C2` [Compound 43, (1S,3S,5S)-5-(Acetamidomethyl)-2-(2-(3-acetyl-5-(2-methylpyrimidin-5-yl)-1H-indazol-1-yl)acetyl)-N-(6-bromopyridin-2-yl)-2-azabicyclo[3.1.0]hexane-3-carboxamide], the IC50 lay in the range of 1000 to 10000 nM.
On to `CC(=O)NC[C@@]12C[C@@H](C(=O)Nc3cccc(Br)n3)N(C(=O)Cn3nc(C(C)=O)c4cc(-c5cnc(C)nc5)ccc43)[C@@H]1C2` [Compound 44, (1R,3S,5R)-5-(Acetamidomethyl)-2-(2-(3-acetyl-5-(2-methylpyrimidin-5-yl)-1H-indazol-1-yl)acetyl)-N-(6-bromopyridin-2-yl)-2-azabicyclo[3.1.0]hexane-3-carboxamide], for which the IC50 was below 1000 nM.
In the case of `COC(=O)N[C@H](C(=O)NCC12CC1N(C(=O)Cn1nc(C(C)=O)c3cc(-c4cnc(C)nc4)ccc31)[C@H](C(=O)Nc1cccc(Br)n1)C2)C(C)C` (stereo partly drawn) [Compound 45, Methyl (2S)-1-(((3S)-2-(2-(3-acetyl-5-(2-methylpyrimidin-5-yl)-1H-indazol-1-yl)acetyl)-3-(6-bromopyridin-2-ylcarbamoyl)-2-azabicyclo[3.1.0]hexan-5-yl)methylamino)-3-methyl-1-oxobutan-2-ylcarbamate], the IC50 was below 1000 nM.

The term IC50 denotes the concentration that gives 50% inhibition.

(Values after patent US11084800B2 (Achillion Pharmaceuticals, Inc., priority 2017, dated 2021).)
